Calls of active or inactive are those of the source. No cut-off for these calls is given here.
Columns and labels:
[1] = biological target: Beta-secretase 1 (Homo sapiens) (UniProt P56817); test: Inhibition of human recombinant BACE1 using M-2420 as a substrate at 3 uM […]
Homo sapiens [2] = organism: Homo sapiens; test: Selectivity ratio of IC50 for human recombinant BuChE to IC50 for human recombinant AChE
Cholinesterase [3] = biological target: T1, Cholinesterase (Homo sapiens, UniProt P06276); test: Inhibition of human recombinant BuChE hydrolyzing activity at 67 uM by Ellman's assay
T1 sequence (P06276 whole entry): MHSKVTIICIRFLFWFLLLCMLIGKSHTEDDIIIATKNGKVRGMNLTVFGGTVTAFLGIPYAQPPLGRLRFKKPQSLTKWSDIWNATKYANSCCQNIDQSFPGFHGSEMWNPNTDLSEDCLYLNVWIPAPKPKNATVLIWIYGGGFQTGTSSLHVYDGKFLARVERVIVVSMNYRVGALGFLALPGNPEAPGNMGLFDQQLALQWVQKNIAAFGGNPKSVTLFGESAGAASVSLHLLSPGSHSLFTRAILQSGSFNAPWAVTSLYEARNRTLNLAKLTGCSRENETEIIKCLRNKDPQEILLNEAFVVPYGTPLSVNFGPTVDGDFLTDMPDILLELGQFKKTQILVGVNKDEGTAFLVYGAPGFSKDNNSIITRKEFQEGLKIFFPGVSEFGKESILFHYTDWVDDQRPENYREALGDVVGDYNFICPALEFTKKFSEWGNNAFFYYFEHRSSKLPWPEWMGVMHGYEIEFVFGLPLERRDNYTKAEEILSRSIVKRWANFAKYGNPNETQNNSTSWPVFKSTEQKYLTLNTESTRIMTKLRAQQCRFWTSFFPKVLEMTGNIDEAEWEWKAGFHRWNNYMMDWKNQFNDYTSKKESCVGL

Acetylcholinesterase [4] = biological target: T2, Acetylcholinesterase (Homo sapiens, UniProt P22303); test: Inhibition of human recombinant AChE at 67 uM by Ellman's assay
T2 sequence (P22303 whole entry): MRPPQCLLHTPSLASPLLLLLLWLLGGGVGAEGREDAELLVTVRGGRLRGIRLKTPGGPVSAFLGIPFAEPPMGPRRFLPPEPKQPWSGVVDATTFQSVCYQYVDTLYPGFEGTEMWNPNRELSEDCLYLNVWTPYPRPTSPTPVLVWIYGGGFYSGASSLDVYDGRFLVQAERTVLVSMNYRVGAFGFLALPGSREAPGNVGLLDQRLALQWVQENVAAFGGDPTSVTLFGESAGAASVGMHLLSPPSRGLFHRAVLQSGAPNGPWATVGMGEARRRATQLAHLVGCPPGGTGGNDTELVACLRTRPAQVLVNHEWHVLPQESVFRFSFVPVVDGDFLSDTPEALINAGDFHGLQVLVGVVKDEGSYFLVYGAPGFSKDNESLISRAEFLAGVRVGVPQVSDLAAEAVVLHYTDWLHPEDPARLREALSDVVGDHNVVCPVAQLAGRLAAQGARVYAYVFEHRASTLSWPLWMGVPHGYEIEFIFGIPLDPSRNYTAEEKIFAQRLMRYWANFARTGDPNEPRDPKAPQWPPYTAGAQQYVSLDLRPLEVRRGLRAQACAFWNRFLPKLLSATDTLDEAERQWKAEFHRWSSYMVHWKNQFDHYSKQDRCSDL

Cholinesterase [5] = biological target: T1, Cholinesterase; test: Inhibition of human recombinant BuChE at 67 uM by Ellman's assay
Acetylcholinesterase [6] = biological target: T2, Acetylcholinesterase; test: Inhibition of human recombinant AChE by Ellman's assay
[7] = biological target: T3, Amyloid-beta precursor protein (Homo sapiens, UniProt P05067); test: Inhibition of amyloid beta (1 to 42) aggregation (unknown origin) at 10 uM by thioflavin T fluorescence method
T3 sequence (P05067 whole entry): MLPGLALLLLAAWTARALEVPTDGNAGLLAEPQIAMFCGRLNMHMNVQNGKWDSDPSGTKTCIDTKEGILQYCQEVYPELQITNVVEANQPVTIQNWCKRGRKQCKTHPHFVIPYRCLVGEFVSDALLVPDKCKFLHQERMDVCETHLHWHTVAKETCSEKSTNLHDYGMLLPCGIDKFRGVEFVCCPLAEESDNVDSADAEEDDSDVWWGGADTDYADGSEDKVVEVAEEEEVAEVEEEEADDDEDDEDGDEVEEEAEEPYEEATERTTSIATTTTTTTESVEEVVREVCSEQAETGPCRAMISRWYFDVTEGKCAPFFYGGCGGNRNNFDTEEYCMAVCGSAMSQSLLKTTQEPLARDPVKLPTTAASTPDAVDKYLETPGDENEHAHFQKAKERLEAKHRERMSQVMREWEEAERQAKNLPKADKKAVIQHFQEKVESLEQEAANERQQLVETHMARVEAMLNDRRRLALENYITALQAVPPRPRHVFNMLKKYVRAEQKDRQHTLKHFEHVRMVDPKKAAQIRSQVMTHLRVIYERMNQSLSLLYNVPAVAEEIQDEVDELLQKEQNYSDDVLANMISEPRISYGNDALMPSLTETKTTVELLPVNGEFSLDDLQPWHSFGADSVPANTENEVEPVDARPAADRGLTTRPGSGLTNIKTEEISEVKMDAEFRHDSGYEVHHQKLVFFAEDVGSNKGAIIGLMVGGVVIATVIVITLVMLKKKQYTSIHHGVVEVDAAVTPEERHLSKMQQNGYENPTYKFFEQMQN

[8] = biological target: T3, Amyloid-beta precursor protein
Description: Inhibition of amyloid beta (1 to 42) aggregation (unknown origin) by thioflavin T fluorescence method

Cholinesterase [9] = biological target: T1, Cholinesterase
Description: Inhibition of human recombinant BuChE by Ellman's assay

HEK293 = test: Cytotoxicity against HEK293 cells assessed as reduction in cell viability up to 10 uM by MTT assay; assay type: cell-based; details: human
[10] = Cytotoxicity against embryonic chicken primary telencephalon neurons at 25 to 50 uM; parameters: species or system Gallus gallus
Gallus gallus [11] = organism: Gallus gallus; test: Reduction in amyloid beta42 secretion in embryonic chicken primary telencephalon neurons; assay type: functional
Gallus gallus [12] = organism: Gallus gallus; test: Reduction in amyloid beta40 secretion in embryonic chicken primary telencephalon neurons; assay type: functional
Gallus gallus [13] = organism: Gallus gallus; test: Reduction in amyloid beta38 secretion in embryonic chicken primary telencephalon neurons; assay type: functional
Homo sapiens [14] = organism: Homo sapiens; test: Selectivity ratio of IC50 for human recombinant AChE to IC50 for human recombinant BuChE

Sequence of Beta-secretase 1 (Homo sapiens) (P56817 whole entry): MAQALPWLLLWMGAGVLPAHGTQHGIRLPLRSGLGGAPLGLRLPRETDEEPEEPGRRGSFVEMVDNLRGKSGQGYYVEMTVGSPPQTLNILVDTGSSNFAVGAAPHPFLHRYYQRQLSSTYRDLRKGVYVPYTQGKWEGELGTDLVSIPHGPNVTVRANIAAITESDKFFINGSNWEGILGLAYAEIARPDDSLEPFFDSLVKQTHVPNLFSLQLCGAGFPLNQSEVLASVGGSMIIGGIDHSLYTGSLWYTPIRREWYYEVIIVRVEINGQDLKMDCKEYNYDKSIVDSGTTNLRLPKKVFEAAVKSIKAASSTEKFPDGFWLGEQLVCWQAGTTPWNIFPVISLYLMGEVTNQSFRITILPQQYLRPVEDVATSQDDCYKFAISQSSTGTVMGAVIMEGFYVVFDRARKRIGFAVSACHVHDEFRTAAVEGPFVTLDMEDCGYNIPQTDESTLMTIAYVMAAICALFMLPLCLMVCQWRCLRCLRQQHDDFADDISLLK

| Compound | inhibition [1] | Ratio IC50 (Homo sapiens [2]) | inhibition (Cholinesterase [3]) | inhibition (Acetylcholinesterase [4]) | inhibition (Cholinesterase [5]) | IC50 (Acetylcholinesterase [6]) | inhibition [7] | IC50 [8] | IC50 (Cholinesterase [9]) | Activity (HEK293) | Activity [10] | Activity (Gallus gallus [11]) | Activity (Gallus gallus [12]) | Activity (Gallus gallus [13]) | Ratio IC50 (Homo sapiens [14]) |
| --- | --- | --- | --- | --- | --- | --- | --- | --- | --- | --- | --- | --- | --- | --- | --- |
| CC(C)Cc1ccc(C(C)C(=O)NCCCNCCCNC2=CC(=O)C(NCCCNCCCNC(=O)C(C)c3ccc(CC(C)C)cc3)=CC2=O)cc1 (stereo not drawn) | 20% | 37.5 | 70% | 26.3% | < 10% | 0.6 µM | 82.6% | 4.83 µM | 22.5 µM |  |  |  |  |  |  |
| CC(C(=O)NCCCNC1=CC(=O)C(NCCCNC(=O)C(C)c2ccc(-c3ccccc3)c(F)c2)=CC1=O)c1ccc(-c2ccccc2)c(F)c1 (stereo not drawn) | 20% |  |  |  |  | > 20 µM | 12.7% |  | 116 µM |  |  |  |  |  |  |
| C[C@H](C(=O)NCCCNCCCNC1=CC(=O)C(NCCCNCCCNC(=O)[C@@H](C)c2ccc(-c3ccccc3)c(F)c2)=CC1=O)c1ccc(-c2ccccc2)c(F)c1 | 20% |  |  |  |  | 2.89 µM | > 90% | 4.43 µM | 7.77 µM | Toxic |  |  |  |  |  |
| CC(C(=O)NCCCNCCCNC1=CC(=O)C(NCCCNCCCNC(=O)C(C)c2ccc(-c3ccccc3)c(F)c2)=CC1=O)c1ccc(-c2ccccc2)c(F)c1 (racemic) | 20% |  |  |  |  |  | > 90% |  |  |  |  |  |  |  |  |
| CC(C(=O)NCCCNCCCNC1=CC(=O)c2ccccc2C1=O)c1ccc(-c2ccccc2)c(F)c1 (stereo not drawn) | 20% |  |  |  |  | 107 µM | 76.4% | 6.88 µM | 16.4 µM | Non-toxic | Toxic | Active | Active | Active |  |
| CC(C(=O)NCCCCCCNC1=CC(=O)C(NCCCCCCNC(=O)C(C)c2ccc(-c3ccccc3)c(F)c2)=CC1=O)c1ccc(-c2ccccc2)c(F)c1 (stereo not drawn) | 20% |  |  |  |  | > 20 µM |  |  | > 20 µM |  |  |  |  |  |  |
| O=C(Cc1ccccc1Nc1c(Cl)cccc1Cl)NCCCNCCCNC1=CC(=O)C(NCCCNCCCNC(=O)Cc2ccccc2Nc2c(Cl)cccc2Cl)=CC1=O | 20% |  |  |  |  | 15.4 µM | 74.9% | 3.15 µM | 0.36 µM | Non-toxic |  |  |  |  | 42.8 |
| CCN(CCCCCCNC1=CC(=O)C(NCCCCCCN(CC)Cc2ccccc2OC)=CC1=O)Cc1ccccc1OC [MEMOQUIN] |  |  |  |  |  |  |  | 5.93 µM |  |  |  |  |  |  |  |
| CC1=C(CC(=O)NCCCNCCCNC2=CC(=O)C(NCCCNCCCNC(=O)CC3=C(C)/C(=C\c4ccc([S+](C)[O-])cc4)c4ccc(F)cc43)=CC2=O)c2cc(F)ccc2/C1=C/c1ccc([S+](C)[O-])cc1 (stereo not drawn) | 20% |  |  |  |  | 9.54 µM | 55% | 8.18 µM | 14.7 µM |  |  |  |  |  |  |
| COc1ccc2c(c1)c(CC(=O)NCCCNCCCNC1=CC(=O)C(NCCCNCCCNC(=O)Cc3c(C)n(C(=O)c4ccc(Cl)cc4)c4ccc(OC)cc34)=CC1=O)c(C)n2C(=O)c1ccc(Cl)cc1 | 20% |  |  |  |  | 10.3 µM | 80.1% | 6.11 µM | 18.7 µM |  |  |  |  |  |  |
| C[C@@H](C(=O)NCCCNCCCNC1=CC(=O)C(NCCCNCCCNC(=O)[C@H](C)c2ccc(-c3ccccc3)c(F)c2)=CC1=O)c1ccc(-c2ccccc2)c(F)c1 | 20% |  |  |  |  | 27.8 µM | 87.2% | 4.77 µM | 9.98 µM | Non-toxic |  |  |  |  |  |

Reference: ChEMBL document CHEMBL3085683, “Quinones bearing non-steroidal anti-inflammatory fragments as multitarget ligands for Alzheimer's disease” (Bioorg Med Chem Lett, 2013)
